Assay results: ChEMBL document CHEMBL1201862, “PubChem BioAssay data set” (2004)
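48-hour exposure; five concentrations; linearly interpolated endpoints. The concentration for 50% growth inhibition is given as GI50.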 Calls of active or inactive are those of the source. Cut-off read from the data, not from the text of the source: active = GI50 up to about 1.1 µM and inactive = higher.

What was measured:
Assay in all cases: growth of human tumour cells (NCI), 48 h
[1] = test system: SW-620
[2] = test system: 786-0
[3] = test system: Malme-3M
[4] = test system: RPMI-8226
[5] = test system: COLO 205
[6] = test system: SK-MEL-2
[7] = test system: ACHN
[8] = test system: KM12
[9] = test system: UACC-257
[10] = test system: HCT-15
[11] = test system: UO-31
[12] = test system: NCI-H226
[13] = test system: SR
[14] = test system: SF-268
[15] = test system: U-251
[16] = test system: EKVX
[17] = test system: DMS-114
[18] = test system: NCI/ADR-RES
[19] = test system: MDA-MB-435
[20] = test system: DU-145

Row | Structure (SMILES) | GI50 [1] | GI50 [2] | GI50 [3] | GI50 [4] | GI50 [5] | GI50 [6] | GI50 [7] | GI50 [8] | GI50 [9] | GI50 [10] [µM] | GI50 [11] | GI50 [12] | GI50 [13] | GI50 [14] | GI50 [15] | GI50 [16] | GI50 [17] | GI50 [18] | GI50 [19] | GI50 [20]
1 | CC(C)C1COC(C(C)(C)C2=N[C@@H](C(C)C)CO2)=N1 (stereo partly drawn) | > 100 µM (inactive) | > 100 µM (inactive) | > 100 µM (inactive) | > 100 µM (inactive) | > 100 µM (inactive) | > 100 µM (inactive) | > 100 µM (inactive) | > 100 µM (inactive) | > 100 µM (inactive) | > 100 | > 100 µM (inactive) | > 100 µM (inactive) | > 100 µM (inactive) | > 100 µM (inactive) | > 100 µM (inactive) | > 100 µM (inactive) | > 100 µM (inactive) |  |  | 
2 | COc1ccc(C(=O)Nc2ccn(CCOC(=O)c3ccc(OC)cc3)c(=O)n2)cc1 | > 100 µM (inactive) | > 100 µM (inactive) | > 100 µM (inactive) | > 100 µM (inactive) | > 100 µM (inactive) | 47.3 µM (inactive) | > 100 µM (inactive) | > 100 µM (inactive) | > 100 µM (inactive) | > 100 | 76.2 µM (inactive) | > 100 µM (inactive) | > 100 µM (inactive) | 43.9 µM (inactive) | 86.7 µM (inactive) | > 100 µM (inactive) | > 100 µM (inactive) |  |  | 
3 | O=C(O)C1CCCCN1C(=O)c1ccccc1 (stereo not drawn) | > 100 µM (inactive) | > 100 µM (inactive) | > 100 µM (inactive) | > 100 µM (inactive) | > 100 µM (inactive) |  | > 100 µM (inactive) | > 100 µM (inactive) | > 100 µM (inactive) | > 100 | > 100 µM (inactive) |  | > 100 µM (inactive) | > 100 µM (inactive) | > 100 µM (inactive) | > 100 µM (inactive) | > 100 µM (inactive) |  |  | 
4 | CCC(C)COC(=O)c1ccc(/N=C\c2ccc(/C=N/c3ccc(C(=O)OCC(C)CC)cc3)cc2)cc1 (stereo not drawn) | > 100 µM (inactive) | > 100 µM (inactive) | > 100 µM (inactive) | > 100 µM (inactive) | > 100 µM (inactive) | > 100 µM (inactive) | > 100 µM (inactive) |  | > 100 µM (inactive) | > 100 | 10.5 µM (inactive) | > 100 µM (inactive) | > 100 µM (inactive) | > 100 µM (inactive) | > 100 µM (inactive) | > 100 µM (inactive) | > 100 µM (inactive) |  |  | 
5 | COC(=O)c1ccccc1NC(=O)C(=O)CC(=O)c1ccccc1NC1=CC(=O)C(=O)c2ccccc21 | 5.4 µM (inactive) | 5.65 µM (inactive) | 3.02 µM (inactive) | 2.64 µM (inactive) | 31.9 µM (inactive) | 12.5 µM (inactive) | 14.5 µM (inactive) | 15.2 µM (inactive) | 6.05 µM (inactive) | 5.65 | 15.1 µM (inactive) | 25.9 µM (inactive) | 2.67 µM (inactive) | 5.96 µM (inactive) | 11.1 µM (inactive) | 44.8 µM (inactive) | 1.71 µM (inactive) | 2.33 µM (inactive) | 4.15 µM (inactive) | 23.2 µM (inactive)
6 | O=C(O)CCSC(=S)Nc1cccc(F)c1 | > 100 µM (inactive) | > 100 µM (inactive) | 48.6 µM (inactive) | 31.6 µM (inactive) | 57.5 µM (inactive) |  | 23.8 µM (inactive) | 42.1 µM (inactive) | 22.3 µM (inactive) | 27 | > 100 µM (inactive) | 33.7 µM (inactive) | 39.2 µM (inactive) | 45.6 µM (inactive) | 47.3 µM (inactive) | 18.6 µM (inactive) | 19.6 µM (inactive) |  |  | 
7 | CCNC(=O)/C=C/CCC#Cc1ccc(-c2ccc(-c3cccs3)s2)s1 | > 100 µM (inactive) | > 100 µM (inactive) | 3.52 µM (inactive) | > 100 µM (inactive) | 1.63 µM (inactive) | > 100 µM (inactive) | > 100 µM (inactive) | > 100 µM (inactive) | > 100 µM (inactive) | > 100 | > 100 µM (inactive) | > 100 µM (inactive) | > 100 µM (inactive) | > 100 µM (inactive) | > 100 µM (inactive) | > 100 µM (inactive) | > 100 µM (inactive) |  |  | 
8 | NC(=O)NC(=O)C1CCC(=O)N1S(=O)(=O)c1ccc(Cl)cc1 (stereo not drawn) | > 100 µM (inactive) | > 100 µM (inactive) | > 100 µM (inactive) | > 100 µM (inactive) | > 100 µM (inactive) | > 100 µM (inactive) | > 100 µM (inactive) | > 100 µM (inactive) | > 100 µM (inactive) | > 100 | > 100 µM (inactive) | > 100 µM (inactive) | > 100 µM (inactive) | > 100 µM (inactive) | > 100 µM (inactive) | > 100 µM (inactive) | > 100 µM (inactive) |  |  | 
9 | c1ccc2c(NCCCCCCCCNc3c4ccccc4nc4ccccc34)c3ccccc3nc2c1 | 0.0506 µM (active) | 0.106 µM (active) | 1.14 µM (inactive) | 0.0828 µM (active) | 0.113 µM (active) | 0.733 µM (active) | 0.0703 µM (active) | 0.187 µM (active) | 1.37 µM (inactive) | 0.528 | 1.35 µM (inactive) | 1.35 µM (inactive) | 0.024 µM (active) | 0.63 µM (active) | 0.184 µM (active) | 0.323 µM (active) | 1.01 µM (active) | 4.15 µM (inactive) | 1.04 µM (active) | 0.0838 µM (active)
10 | C=CCN1C(=O)CS/C1=N\NC(=O)c1c(C)nc2sccn12 | > 100 µM (inactive) | > 100 µM (inactive) | > 100 µM (inactive) | > 100 µM (inactive) | > 100 µM (inactive) | > 100 µM (inactive) | > 100 µM (inactive) | > 100 µM (inactive) | > 100 µM (inactive) | > 100 |  | > 100 µM (inactive) | > 100 µM (inactive) | > 100 µM (inactive) | > 100 µM (inactive) | > 100 µM (inactive) | > 100 µM (inactive) |  |  | 
11 | CC(=O)OCC1OC(N2C(=O)/C(=N\NC(N)=S)c3ccc([N+](=O)[O-])cc32)C(OC(C)=O)C1OC(C)=O (stereo not drawn) | 36.9 µM (inactive) | 19.8 µM (inactive) | 33.7 µM (inactive) | 27.9 µM (inactive) | 31 µM (inactive) | 20.7 µM (inactive) | 30.7 µM (inactive) | 38.5 µM (inactive) | 37.4 µM (inactive) | 76 |  | 28.6 µM (inactive) | 5.98 µM (inactive) | 30.8 µM (inactive) | 28.1 µM (inactive) | 36.6 µM (inactive) | 23.1 µM (inactive) |  |  | 
12 | CSc1n/c(=N\c2ccccc2)sn1-c1ccccc1 | 12.3 µM (inactive) | 16.6 µM (inactive) | 24.3 µM (inactive) | 5.45 µM (inactive) | 7.73 µM (inactive) | 17.1 µM (inactive) | 18.9 µM (inactive) | 17.3 µM (inactive) | 20.3 µM (inactive) | 13.8 | 17.3 µM (inactive) | 15.5 µM (inactive) | 17.8 µM (inactive) | 19.6 µM (inactive) | 14.9 µM (inactive) | 27.5 µM (inactive) | 3.15 µM (inactive) |  |  | 
13 | CCOCC(=O)N[C@H]1CCc2cc(OC)c(OC)c(OC)c2-c2ccc(OC)c(=O)cc21 | 0.0169 µM (active) | 0.0199 µM (active) | 0.0229 µM (active) | 0.0778 µM (active) | 0.0137 µM (active) | 0.0174 µM (active) | 0.0962 µM (active) | 0.0129 µM (active) | 0.0377 µM (active) | 0.0865 | 3.56 µM (inactive) | 0.0762 µM (active) | < 0.0206 µM (active) | 0.0233 µM (active) | 0.0173 µM (active) | > 15.8 µM (inactive) | 0.0148 µM (active) | 0.982 µM (active) | 0.0123 µM (active) | 0.0213 µM (active)
14 | CC1(CO)C(=O)OC12CCCCC2 (stereo not drawn) | > 100 µM (inactive) | > 100 µM (inactive) | > 100 µM (inactive) | > 100 µM (inactive) | > 100 µM (inactive) | > 100 µM (inactive) |  | > 100 µM (inactive) | > 100 µM (inactive) |  | 63.4 µM (inactive) | > 100 µM (inactive) | 84.9 µM (inactive) | > 100 µM (inactive) |  | > 100 µM (inactive) | > 100 µM (inactive) |  |  | 
